According to the NIST ThermoML archive (doi:10.1016/j.fluid.2013.12.015):
Numbers after ± are expanded uncertainties.

Conditions: Liquid, Closed cell (Static) method

SMILES	vapor or sublimation pressure (283.15 K) [kPa]	vapor or sublimation pressure (293.15 K) [kPa]	vapor or sublimation pressure (303.15 K) [kPa]	vapor or sublimation pressure (313.15 K) [kPa]	vapor or sublimation pressure (323.15 K) [kPa]
C=C(F)C(F)(F)F [2,3,3,3-tetrafluoro-1-propene]	436.5 ± 7	591 ± 7.1	780.5 ± 7.1	1015.6 ± 7.2	1300.7 ± 7.2
CC(C)C [2-methylpropane]	222.2 ± 7	303.3 ± 7	406 ± 7	530.3 ± 7	684.4 ± 7.1
